Holding throughout (settings): lowest concentration inhibiting 95% of growth (OD600); with BLi relebactam 4 μg/mL; 22 hours, 35±2° C.
For assay [1], the system named is Acinetobacter baumannii expressing TEM-1, AmpC, and Oxa-24/40 (CL6188). The class given is cell-based. The protocol: (§1) The concentrations of compounds required to inhibit the growth of various strains of bacteria were determined in an assay that assessed bacterial growth by measuring optical density at 600 nm (OD600). The bacterial strains tested included the clinical strains Escherichia co/i expressing NDM-1 (CLB30016), Klebsiella pneumoniae expressing KPC-1 (CL6569), Acinetobacter baumannii expressing TEM-1, AmpC, and Oxa-24/40 (CL6188) and Pseudomonas aeruginosa expressing AmpC (CL5701). All compounds were tested in the presence of a f3 lactamase inhibitor (BLi, Relebactam) in 384-well microplates.
(§2) The clinical strains were stored as frozen single use stocks, thawed and diluted into 1.1× cation-adjusted Mueller-Hinton 11 broth to achieve approximately 2×10^5 CFU/mL. Test compounds were dissolved in DMSO and diluted 1:50 in the assay, resulting in a final concentration range of 100 μM to 0.098 μM. On the day of the assay, 1 μL of test compound was added to the plate followed by 4 μL of 50 μg/mL BLi in MOPS buffer and 45 μL of diluted bacteria. Plates were centrifuged at 1000 rpm for 30 seconds, shaken at approximately 800 rpm for 1 minute, and incubated at 35±2° C. for 22 hours. The concentration of BLi used in the assay was 4 μg/mL. At the end of the incubation, absorbance at 600 nm was determined using a spectrophotometer. Inhibition was quantitated by identifying the lowest concentration of test compound that was required to inhibit […] of the growth of the bacteria.

The subject of assay [2] is Escherichia co/i expressing NDM-1 (CLB30016). The assay can be described thus: Growth inhibitory concentration (OD600), E. coli CLB30016. The class given is cell-based, Escherichia coli. How it is done:
as §1, §2

The test system of assay [3] is Klebsiella pneumoniae expressing KPC-1 (CL6569). The assay can be described thus: Growth inhibitory concentration (OD600), K. pneumoniae CL6569. The class given is cell-based. How it is done:
as §1, §2

For assay [4], the system named is Pseudomonas aeruginosa expressing AmpC (CL5701). The assay can be described thus: Growth inhibitory concentration (OD600), P. aeruginosa CL5701. The class given is cell-based. How it is done: as §1, §2

With `COCC[C@]1(N)CC[C@@H](NC(=N)c2ccc3c(c2)CC[C@H]([C@](C)(O/N=C(\C(=O)N[C@@H]2C(=O)N(OS(=O)(=O)O)C2(C)C)c2csc(N)n2)C(=O)O)O3)CC1` [Compound 63, (S)-2-((R)-6-(N-((1s,4S)-4-amino-4-(2-methoxyethyl)cyclohexyl)carbamimidoyl)chroman-2-yl)-2-((((Z)-1-(2-aminothiazol-4-yl)-2-(((S)-2,2-dimethyl-4-oxo-1-(sulfooxy)azetidin-3-yl)amino)-2-oxoethylidene)amino)oxy)propanoic acid], in assay [1], the “AB_CL6188 MITC95” value came out at 6.25 µM. The “EC_CLB30016 MITC95” value in assay [2] stood at 12.5 µM. In assay [3], the “KP_CL6569 MITC95” value amounted to 0.7813 µM. In assay [4], the “PA_CL5701 MITC95” value worked out at 3.125 µM.

For the origin of these results see US20250019376A1, “CHROMANE AMIDINE MONOBACTAM ANTIBIOTICS” (priority 2021, published 2025).
